What was measured:
rat fat cells = assay: Lipogenesis: conversion of glucose to toluene-soluble products in isolated rat fat cells; format: cell-based; conditions: for Concentration [μM] at which 25% of the max. HI action is reached (lipogenesis): 25% of the maximum human insulin action; for Lipogenesis % of the max. HI action: 90 min at 37° C., D-[3-3H]glucose, human insulin (HI) = 100%
Procedure: (§1) The biological activity of the peptides of formula I according to the invention is determined with the aid of preparatively isolated rat fat cells and diaphragm fragments.
(§2) Rat fat cells were prepared as follows: Fatty tissue of the epididymis (Wistar rat, 160-180 g, no feed restriction) is digested with collagenase and the resulting isolated fat cells are washed several times by flotation.
This test determines the insulin-stimulatable conversion of glucose to toluene-soluble products (triglycerides, phospholipids, fatty acids), requiring the glucose transport and the triglyceride (glycerol-3-P synthesis, esterification)/phospholipid/fatty acid synthesis, including the insulin signal transmission cascade.
Rat fat cells in KRH buffer are incubated for 90 min at 37° C. with D-[3-^3 H]glucose (0.2 mM or 1 mM final concentration) in the presence or absence of insulin or peptides according to the invention. By the addition of a toluene-soluble scintillation cocktail, the cells are digested and the lipids separated from water-soluble products and the incubation medium. After phase separation, the radioactivity incorporated into lipids is determined by scintillation measurement directly without removal of the aqueous phase ([^3 H]lipid [dpm×10^-3 ]).
(§3) The action of human insulin (HI) is given a value of 100%. The concentration data of the peptides according to the invention used are based on the concentration at which 25% or 20% of the maximum HI action is reached.

rat diaphragm fragments = assay: Glycogenesis: glycogen synthesis in rat diaphragm fragments; format: cell-based; conditions: for Concentration [μM] at which 25% of the max. HI action is reached (glycogenesis): 25% of the maximum human insulin action; for Glycogenesis % of the max. HI action: 15 min at 37° C., 50 μM D-[U-14C]glucose, human insulin (HI) = 100%
Procedure: as §1
Preparation of rat diaphragm fragments: Small tissue fragments (5 mm diameter) are punched out of hemidiaphragms (Wistar rat, 60-70 g, no feed restriction) which have been washed several times.
This test determines the insulin-stimulatable glycogen synthesis in muscle cells, comprising the glucose transport via the plasma membrane and the conversion of the glucose to glycogen, including the functional insulin signal transmission cascade.
Diaphragm fragments are incubated for 15 min at 37° C. in Krebs-Ringer-Henseleit buffer (KRH buffer) with 50 μM D-[U-^14 C]glucose in the presence or absence of insulin or the peptides according to the invention. After the medium has been filtered with suction, the tissue fragments are intensively washed, frozen at -70° C. and then homogenized at 2° C. in a Polytron pulverizer. The homogenate is centrifuged (2000 g) and the supernatant is pipetted onto filter paper. To determine the glycogen formed, the filters are transferred into trichloroacetic acid (TCA) (5%), washed with ethanol and acetone and dried and their radioactivity is determined via scintillation measurement ([^14 C]glycogen [dpm×10^-3 ]).
as §3

[1] = test system: plasma membrane vesicles from rat fat cells; assay: Glucose transport activity in isolated plasma membrane vesicles; format: biochemical; conditions: for Concentration [μM] at which 20% of the max. HI action is reached (glucose transport): 20% of the maximum human insulin action; for Glucose transport % of the max. HI action: 30 min at 25° C., then 10 sec with 50 μM D-[3-3H]glucose, human insulin (HI) = 100%
Procedure: as §1, §2
C) Glucose transport activity
Isolated plasma membrane vesicles are obtained from rat fat cells by washing the fat cells twice in homogenization buffer (20 mM trihydroxyaminomethane (Tris)/HCl, pH 7.4, 1 mM, 4° C., EDTA, 0.25M sucrose) and then homogenizing them in 20 ml of the same buffer (glass homogenizer with Teflon pestle).
The homogenate is centrifuged (16,000×g, 15 min) and the sediment is suspended in the same buffer and centrifuged again. The sediment is suspended in 5 ml of homogenization buffer and layered onto a sucrose cushion (1.12M sucrose, 20 mM Tris/HCl, pH 7.4, 1 mM EDTA); after centrifugation (100,000×g, 70 min), the interphase containing the plasma membrane vesicles is removed with a syringe, diluted with 45 ml of buffer and centrifuged again (48,000×g, 45 min). The sediment is suspended in 10 ml of buffer, centrifuged again and resuspended in 3 ml of buffer.
Isolated plasma membrane vesicles are incubated for 30 min at 25° C. in the presence or absence of insulin or the peptides according to the invention. The vesicles are then incubated for 10 sec at 25° C. with 50 μM D-[3-^3 H]glucose and […] of the same specific radioactivity. The mixtures are rapidly filtered with suction on nitrocellulose filters. The filters are washed copiously and dried. Their radioactivity is determined by liquid scintillation measurement. The specific transport (D-[^3 H]glucose/L-[^4 C]glucose [dpm×10^-3 ]) is calculated as the difference between the [^3 H] and [^14 C] radioactivity.
as §3

Substance | Concentration [μM] at which 25% of the max. HI action is reached (lipogenesis) (rat fat cells) [µM] | Lipogenesis % of the max. HI action (rat fat cells) [%] | Concentration [μM] at which 25% of the max. HI action is reached (glycogenesis) (rat diaphragm fragments) [µM] | Glycogenesis % of the max. HI action (rat diaphragm fragments) [%] | Concentration [μM] at which 20% of the max. HI action is reached (glucose transport) [1] [µM] | Glucose transport % of the max. HI action [1] [%]
H--L--Asn--L--Cys--L--Tyr--NH--CH2 --CH2 OH [Example 3] | 375 | 31 | 285 | 42 | 225 | 38
H--L--Tyr--L--Cys--L--Asn--NH--(CH2)2 --O--PO(OH)--O(CH2)2 --CN [Example 13] | 120 | 33 | 100 | 31 | 140 | 36
H--L--Tyr--L--Cys--NH--(CH2)4 --NH2 [Example 7] | – | 18 | – | 2 | – | 10
H--L--Tyr--L--Cys--L--Asn--NH--CH2 --CH2 --NH--gluconic acid [Example 9] | – | 12 | – | 11 | – | 15
H--L--Tyr--L--Cys--L--Asn--OH [Example 12] | 750 | 26 | – | 15 | 880 | 20
Acetyl--L--Tyr--L--Cys--L--Asn--NH--CH2 --CH2 OH [Example 11] | 200 | 36 | 240 | 45 | 260 | 40
H--L--Cys--L--Tyr--NH--CH2 --CH2 OH [Example 6] | – | 17 | 480 | 32 | 750 | 24
H--L--Tyr--L--Cys--L--Asn--NH--CH2 --CH2 --NH2 [Example 10] | 330 | 30 | 450 | 25 | 300 | 42
L--Tyr--L--Cys--L--Asn--NH--(CH2)2 --O--PO(OH)--O--6Manα1--2--Manα1--6Manα1--O--CH3 [Example 16] | 125 | 24 | 135 | 25 | 152 | 29
H--L--Tyr--L--Cys--L--Asn--NH--(CH2)2 --O--PO(OH)--O--6Manα1--2Manα1--O--CH3 [Example 15] | 142 | 35 | 139 | 29 | 122 | 32
H--L--Tyr--L--Cys--NH--CH2 --CH2 --NH2 [Example 2] | 500 | 32 | 650 | 28 | 350 | 40
H--L--Cys--L--Asn--NH--CH2 --CH2 OH [Example 5] | – | 21 | – | 16 | 600 | 25
H--D--Tyr--L--Cys--L--Asn--NH--CH2 --CH2 OH [Example 4] | 410 | 31 | – | 23 | 260 | 38
H--(3--(thien--2--yl)--L--Ala)--L--Cys--L--Asn--OH [Example 8] | 450 | 26 | 375 | 31 | 410 | 25
